Experimental data taken from patent US4088752A, “Oral composition for plaque and caries inhibition” (Gaba AG, priority 1974, dated 1978).

Legend:
Format in all cases: in vivo, Osbourne-Mendel rats
[1] = Weight gain of rats during the 20-day experimental period; settings: means of 10 animals, standard error 3.4
Method: (§1) Groups of 10 Osbourne-Mendel rats, which are particularly suitable for caries-inhibition studies, were subjected to the following treatments:
(§2) On day 13 the animals with their dams were transferred to stainless-steel cages and fed powdered Nafag diet. The animals were weaned when 22 days old and distributed at random among the treatments.
(§3) 0.1 ml of the test solutions were applied once daily during the whole 20-day experimental period in which diet 2000a and tap water were available ad libitum. On day 22 the animals were superinfected twice with Streptococcus mutans OMZ 176. Caries, molar surface dissolution rate and fluoride content were assessed acccording to routine procedures.

[2] = system: Streptococcus mutans OMZ 176; assay: Rat caries experiment: smooth surface plaque, smooth surface caries and fissure caries after local application of aqueous test solutions; settings: for Average number per rat of smooth surface plaque extent (PU) / Average number per rat of advanced dentinal fissure lesions (B) / Average number per rat of smooth surface carious units (E): means of 10 animals; for Average number per rat of smooth surface plaque extent (PU): standard error 0.29; for Average number per rat of advanced dentinal fissure lesions (B): standard error 0.94; for Average number per rat of smooth surface carious units (E): standard error 1.81; for cariostatic effects of sodium fluoride and sodium trimetaphosphate together: smooth surface caries, combination of the two
Method: To examine the effect of the compounds used according to the present invention, a series of animal experiments were carried out. In these tests an aqueous solution of the test compounds was applied locally to determine its action in inhibiting plaque and caries.
as §2, §3

[3] = Postmortal rat molar solubility (molar surface dissolution rate); settings: per mand: m1 + m2 in 10 ml 0.025 M acetate buffer pH 4, 60 min., 37° C; standard error 5.7
Method: as §3

[4] = Fluoride content of maxillary molar surfaces; settings: maxillary molars m1 + m2, 15 sec. in 2N hydrochloric acid under agitation; for Fluoride concentration, cumulated layers: first and second cumulated layers, standard error 12.4; for Fluoride concentration, second layer: standard error 10.4; for Fluoride concentration, first layer: standard error 16.6
Method: as §1, §3
Fluoride concentrations in the first, the second and the
first and second cumulated layers (ppm F) in the maxillary
molars (m1 + m2, 15 sec. in 2N hydrochloric acid under

[5] = rats, 20-day experimental period

Molecule | weight gains [1] [g] | Average number per rat of smooth surface plaque extent (PU) ([2]; 20-day experimental period) | Average number per rat of advanced dentinal fissure lesions (B) ([2]; 20-day experimental period) | Average number per rat of smooth surface carious units (E) ([2]; 20-day experimental period) | Smooth surface caries (statement) [2, 5] | cariostatic effects of sodium fluoride and sodium trimetaphosphate together [2] | Postmortal rat molar solubility [3] [μgP] | Fluoride concentration, cumulated layers [4] [ppm F] | Fluoride concentration, second layer [4] [ppm F] | Fluoride concentration, first layer [4] [ppm F] | also measured
O=P1([O-])OP(=O)([O-])OP(=O)([O-])O1.[Na+].[Na+].[Na+] [Treatment 4, sodium trimetaphosphate] | 60 | 2.7 | 6.1 | 10.1 | effective | additive |  |  |  |  | 
N,N,N'-tris-(2-hydroxyethyl)-N'-octadecyl-1,3-diaminopropanediorthophosphate [Treatment 8] |  |  |  |  |  |  | 121 |  |  |  | 
N,N,N'-tris-(2-hydroxyethyl)-N'-octadecyl-1,3-diaminopropanemonohydrofluoride monoorthophosphate [Treatment 9] |  |  |  |  |  |  | 130 | 74 | 53 | 92 | 
N,N,N'-tris-(7-hydroxyethyl)-N'-octadecyl-1,3-diaminopropanepyrophosphate [Example 7] |  |  |  |  |  |  |  | 143 | 94 | 187 | 
N-(2-hydroxyethyl)-2-heptadecen-9-yl-imidazoline orthophosphate [Example 6] |  |  |  |  |  |  |  |  |  |  | Smooth surface plaque, average extent (statement) [2, 5]: significantly lower (PF <0.001)
sodium fluoride [Treatment 3] | 65 | 2.5 | 9.8 | 9.0 | effective | additive |  |  |  |  | 
